Reference: patent publication US10159265B2, “Feed composition for reducing ruminant methanogenesis” (priority 2012, dated 2018)
Marks after values point to notes of the source that are not given here.

Assays:
[1] = tested on: "in vitro" ruminal fluid cultures; experiment: Ammonia (N-NH3) concentration in "in vitro" ruminal fluid cultures; format: cell-based, calves
Source text: (§1) Two trials following an identical experimental protocol were designed to study the effect of different pure flavonoids on rumen fermentation using a simulatory “in vitro” system based on the experimental protocol described by Theodorou M K et al. (1994) Animal Feed Science and Technology, 48 (3), p. 185-197; Mauricio, R. M., et al. (1999) Animal Feed Science and Technology 79, 321-330.
(§2) Rumen cannulated calves which received a mixed ration mainly composed of concentrate (90:10) were used as rumen fluid donor; feed composition is presented in Table 1. The inoculum was collected and filtered through two-layer surgical gauze and kept in thermo pots. Flavonoids (Table 2) plus 600 mg of concentrate (Table 1) and 60 mg of barley straw as the substrate were dosed by triplicate in preheated bottles (39° C.) and maintained under anaerobic conditions. Flavonoids isonaringin, neoeritrocin, poncirin were purchased from INDOFINE Chemical Company, Inc (USA). 10 ml of rumen fluid and 40 ml of incubation medium were added to the bottles (McDougall, El (1948) Studies on ruminant saliva. 1. The composition and output of sheep's saliva. Biochem J. 43(1) 99-109). Once the bottles were filled and the anaerobic condition was applied, the bottles were sealed and the incubation process was started in a hot water bath. Pressure readings were made at 2, 4, 6, 8, 12, 24, 36 and 48 hours. Each sample was incubated in triplicate in two sets or batches.
(§3) After 12 hours of incubation, one bottle (replicate) from each treatment was opened, pH was recorded and the bottle was sampled for volatile fatty acids (Jouany, J. P., 1982 Science des Aliments 2, 131-144), lactate (Taylor, K. A. C. C., 1996. Appl. Biochem. Biotechnol. Enzym. Eng. Biotechnol. 56, 49-58) and ammonia (Chaney, A. L., Marbach, E. P., 1962. Clin. Chem. 8, 130-132) analyses.

[2] = tested on: Megasphaera elsdenii; experiment: qPCR relative quantification of Megasphaera elsdenii; format: cell-based; conditions: 12 hours of incubation
Description: as §2, §3
(§4) The environmental DNA was extracted using the technique proposed by Yu and Morrison (2004). Quantification of Streptococcus bovis, Megasphaera elsdenii and Selenomonas ruminantium DNA was done by qPCR using specific primers (Tajima, K. et al. 2001. Appl. Environ. Microb. 67, 2766-2774; Ouwerkerk, D., et al. 2002. J. Appl. Microbiol. 92, 753-758). Results were statistically analyzed using the PROC MIXED procedure of SAS statistical package (SAS, 2000, User's guide: Statistics, version 8 editions inst., Inc., Cary, N.C.). The least significant difference was used to compare the means. Differences between means in which P<0.05 were accepted as significant.

[3] = tested on: methanogenic (archea) populations; experiment: Methane production in "in vitro" rumen fluid culture; format: cell-based, calves; design: Average methane production / Accumulated methane production / Methane production / Cumulative methane production: unit not given here
Source text: as §1
as §2, with “Pressure readings were made at 2, 4, 6, 8, 12, 24, 36 and 48 hours.” left out
The effects of flavonoids substances on fermentation activity of certain archea populations which are theoretically responsible for the methane production were analyzed.
The experimental design allows determining whether the effect of flavonoids on methane reduction was derived from a general reduction in microbial activity and biogas production or contrarily flavonoid affects specifically on methanogenic (archea) populations. The presence of flavonoids in the culture medium reduced methane contribution in the total biogas production (P<0.05) although, again, the aforementioned impact was heterogeneous.

[4] = tested on: ruminal bacteria; experiment: Bacterial DNA concentration by qPCR; format: cell-based, calves; conditions: 12 hours of incubation
Description: as §2, §3, §4

[5] = tested on: Streptococcus bovis; experiment: qPCR relative quantification of Streptococcus bovis; format: cell-based; conditions: 12 hours of incubation
Description: as §2, §3, §4

[6] = tested on: "in vitro" ruminal fluid cultures; experiment: Ammonia (N-NH3) concentration in "in vitro" ruminal fluid cultures; format: cell-based, calves; conditions: 72 h
[7] = tested on: "in vitro" ruminal fluid culture; experiment: Lactate concentration in "in vitro" ruminal fluid culture; format: cell-based, calves; conditions: 12 hours of incubation
Source text: as §1, §2, §3

[8] = tested on: Selenomonas ruminantium; experiment: qPCR relative quantification of Selenomonas ruminantium; format: cell-based; conditions: 12 hours of incubation
Description: as §2, §3, §4

[9] = tested on: "in vitro" ruminal fluid cultures; experiment: Volatile fatty acid concentration and molar proportions in "in vitro" ruminal fluid cultures; format: cell-based, calves
Source text: as §1, §2
[…] P., 1982 Science des Aliments 2, 131-144), lactate (Taylor, K. A. C. C., 1996. Appl. Biochem. Biotechnol. Enzym. Eng. Biotechnol. 56, 49-58) and ammonia (Chaney, A. L., Marbach, E. P., 1962. Clin. Chem. 8, 130-132) analyses.

[10] = tested on: "in vitro" rumen fluid culture; experiment: Biogas production in "in vitro" rumen fluid culture (pressure meter); format: cell-based, calves; design: Average biogas production / Cumulative biogas production / Biogas production: unit not given here; conditions: for Average biogas production: average over doses and incubation times
Description: as §1
Gas production was determined from a semi-automatic pressure meter, the relationship between pressure levels and the produced gas volume was previously calculated.
as §2, with “Pressure readings were made at 2, 4, 6, 8, 12, 24, 36 and 48 hours.” left out

[11] = Exp 1, average over doses and incubation times, listed as neohesperidin

COc1ccc([C@@H]2CC(=O)c3c(O)cc(O[C@@H]4O[C@H](CO)[C@@H](O)[C@H](O)[C@H]4O[C@@H]4O[C@@H](C)[C@H](O)[C@@H](O)[C@H]4O)cc3O2)cc1O [Neohesperidin, neohesperidin]
N-NH3 concentration ([1]; 0 h (initial constant value)): 149.99 mg/L
N-NH3 concentration ([1]; 12 h): 168.38 mg/L
N-NH3 concentration, average (M) ([1]; average over incubation times): 219.18 mg/L
Relative Quantification 2^(ΔΔCt) M. elsdenii [2]: 1.35 ^c
Relative Quantification 2^(ΔΔCt) M. elsdenii ([2]; listed as neohesperidin): improved
Dosage effect on methane production ([3]; Exp 1, 200 vs 500 mg/kg DM): more reduced by increasing the dose
Accumulated methane production ([3]; Exp 1, 12 h): 18.02
Proportion of methane in the produced biogas ([3]; Exp 1, 12 h): 10.21
Accumulated methane production ([3]; Exp 1, 24 h): 23.15
Proportion of methane in the produced biogas ([3]; Exp 1, 24 h): 12.34
Accumulated methane production ([3]; Exp 1, 48 h): 28.84
Proportion of methane in the produced biogas ([3]; Exp 1, 48 h): 15.91
Accumulated methane production ([3]; Exp 1, 72 h): 32.18
Proportion of methane in the produced biogas ([3]; Exp 1, 72 h): 16.20
Proportion of methane in the produced biogas ([3]; Exp 1, average over doses and incubation times): 13.66^d
Average methane production [3, 11]: decreased
Proportion of methane in the produced biogas [3, 11]: 13.70
Methane production ([3]; Exp 1, dose 1, 0.2 g/kg DM): 27.63
Proportion of methane in the produced biogas ([3]; Exp 1, dose 1, 0.2 g/kg DM): 13.98
Methane production ([3]; Exp 1, dose 2, 0.5 g/kg DM): 23.46
Proportion of methane in the produced biogas ([3]; Exp 1, dose 2, 0.5 g/kg DM): 13.35
Average methane production ([3]; Exp 2 (second trial), average over doses and incubation times): 30.44^b
Cumulative methane production ([3]; Exp 2, 12 h): 22.52
Cumulative methane production ([3]; Exp 2, 24 h): 27.98
Cumulative methane production ([3]; Exp 2, 48 h): 34.31
Cumulative methane production ([3]; Exp 2, 72 h): 36.95
Methane production ([3]; Exp 2, dose 1, 0.2 g/kg DM): 30.1
Methane production ([3]; Exp 2, dose 2, 0.5 g/kg DM): 30.8
Bacteria DNA [4]: 23.93 ^ab μg/ml
Bacteria DNA ([4]; listed as neohesperidin): increase did only reach statistical significance
Relative Quantification 2^(ΔΔCt) S. bovis [5]: 0.25
N-NH3 concentration [6]: 339.17 mg/L
Lactate [7]: 45.8 mg/L
Lactate ([7]; listed as neohesperidin): tended to moderate the recorded increase
Relative Quantification 2^(ΔΔCt) S. ruminantium [8]: 0.53
% Acetate, molar ratio ([9]; 0 h): 62.51 mol/100 mol
% Butyrate, molar ratio ([9]; 0 h): 9.07 mol/100 mol
% Propionate, molar ratio ([9]; 0 h): 20.03 mol/100 mol
A/P rate (acetate/propionate) ([9]; 0 h): 3.12
VFA concentration ([9]; 0 h (initial constant value)): 13.78 mmol/L
% Acetate, molar ratio ([9]; 12 h): 54.68 mol/100 mol
% Butyrate, molar ratio ([9]; 12 h): 9.68 mol/100 mol
% Propionate, molar ratio ([9]; 12 h): 30.05 mol/100 mol
A/P rate (acetate/propionate) ([9]; 12 h): 1.82
VFA concentration ([9]; 12 h): 36.97 mmol/L
% Acetate, molar ratio ([9]; 72 h): 55.68 mol/100 mol
% Butyrate, molar ratio ([9]; 72 h): 9.96 mol/100 mol
% Propionate, molar ratio ([9]; 72 h): 26.91 mol/100 mol
A/P rate (acetate/propionate) ([9]; 72 h): 2.07
VFA concentration ([9]; 72 h): 53.04 mmol/L
% Acetate, molar ratio, average (μ) ([9]; average over incubation times): 57.62 mol/100 mol
% Butyrate, molar ratio, average (μ) ([9]; average over incubation times): 9.57 ^a mol/100 mol
% Propionate, molar ratio, average (M) ([9]; average over incubation times): 25.66 ^b mol/100 mol
VFA concentration, average (μ) ([9]; average over incubation times): 34.60 mmol/L
Cumulative biogas production ([10]; Exp 1, 12 h incubation): 175.93
Cumulative biogas production ([10]; Exp 1, 24 h incubation): 217.84
Cumulative biogas production ([10]; Exp 1, 48 h incubation): 253.99
Cumulative biogas production ([10]; Exp 1, 72 h incubation): 275.06
Average biogas production ([10]; Exp 1): 230.71^e
Average biogas production ([10]; Exp 1, listed as neohesperidin): 230.7
Biogas production ([10]; Exp 1, dose 1, 0.2 g/kg DM): 238.13
Biogas production ([10]; Exp 1, dose 2, 0.5 g/kg DM): 223.28
Dosage effect on gas production ([10]; Exp 1, inclusion levels 200 and 500 mg/kg): more pronounced dosage effect
Average biogas production ([10]; Exp 2 (second trial)): 268.16^c
Cumulative biogas production ([10]; Exp 2, 12 h): 215.60
Cumulative biogas production ([10]; Exp 2, 24 h): 256.18
Cumulative biogas production ([10]; Exp 2, 48 h): 292.28
Cumulative biogas production ([10]; Exp 2, 72 h): 308.57
Biogas production ([10]; Exp 2, dose 1, 0.2 g/kg DM): 267.1
Biogas production ([10]; Exp 2, dose 2, 0.5 g/kg DM): 269.2
